Here are results for five compounds from patent publication US4552701A, “Glycopeptide antibiotics and process of preparation” (Eli Lilly and Company, priority 1984, dated 1985).

Values after ≈ are worked out from the molar mass of the structure shown.

The test system of assay [1] is Streptococcus pneumoniae Park 1. The assay is classed as cell-based. The conditions noted are these: agar dilution.
A further assay deals with Klebsiella pneumonia X68. The format is cell-based. The conditions noted are these: agar dilution.
For assay [2], the system named is Staphylococcus epidermidis 222. The assay is classed as cell-based. Particulars: agar dilution.
The next assay has as its system Klebsiella pneumonia X26. The format is cell-based. Particulars: agar dilution.
The test system of another assay is Escherichia coli EC14. The format is cell-based. The conditions noted are these: agar dilution.
The subject of assay [3] is Streptococcus pyogenes C203. The assay is classed as cell-based. Particulars: agar dilution.
For assay [4], the system named is Staphylococcus aureus X400. The conditions noted are these: agar dilution.
The subject of assay [5] is Staphylococcus epidermidis EP11. The assay is classed as cell-based. Particulars: agar dilution.
In assay [6] the test system is Staphylococcus aureus NRRL B313. The conditions noted are these: agar dilution.
Assay [7] concerns Haemophilus influenzae 76. The assay is classed as cell-based. The conditions noted are these: agar dilution.
Assay [8] has as its system Streptococcus sp. group D 2041. The assay is classed as cell-based. Particulars: agar dilution.
In assay [9] the test system is Streptococcus faecium ATCC 9790. The assay is classed as cell-based. The conditions noted are these: agar dilution.
A further assay deals with Escherichia coli TEM. The assay is classed as cell-based. Particulars: agar dilution.
The subject of the next assay is Klebsiella pneumonia KAE. The assay is classed as cell-based. Particulars: agar dilution.
The subject of the next assay is Escherichia coli N10. The assay is classed as cell-based. Particulars: agar dilution.
The test system of assay [10] is Haemophilus influenzae C.L. The format is cell-based. The conditions noted are these: agar dilution.
Assay [11] concerns Staphylococcus aureus V41. The conditions noted are these: agar dilution.
Assay [12] deals with Peptococcus asaccharolyticus 1302. The assay is classed as cell-based. Particulars: agar dilution, read after 24 hrs.
In assay [13] the test system is Bacteroides fragilis 1877. The assay is classed as cell-based. The conditions noted are these: agar dilution, read after 24 hrs.
For assay [14], the system named is Bacteroides melaninogenicus 1856/28. The assay is classed as cell-based. Particulars: agar dilution, read after 24 hrs.
The subject of assay [15] is Bacteroides corrodens 1874. The assay is classed as cell-based. Particulars: agar dilution, read after 24 hrs.
Assay [16] relates to Bacteroides thetaiotaomicron 1438. The format is cell-based. Particulars: agar dilution, read after 24 hrs.
The subject of assay [17] is Bacteroides melaninogenicus 2736. The format is cell-based. Particulars: agar dilution, read after 24 hrs.
Assay [18] relates to Eubacterium aerofaciens 1235. The format is cell-based. The conditions noted are these: agar dilution, read after 24 hrs.
In assay [19] the test system is Peptostreptococcus intermedius 1264. The assay is classed as cell-based. The conditions noted are these: agar dilution, read after 24 hrs.
For assay [20], the system named is Fusobacterium symbiosum 1470. The format is cell-based. The conditions noted are these: agar dilution, read after 24 hrs.
The next assay concerns Peptococcus prevoti 1281. Particulars: agar dilution, read after 24 hrs.
Assay [21] deals with Clostridium difficile 2994. The assay is classed as cell-based. The conditions noted are these: agar dilution, read after 24 hrs. The method, then:
(§1) | read after 24hrs. incubation.

Assay [22] has as its system Clostridium septicum 1128. The assay is classed as cell-based. The conditions noted are these: agar dilution, read after 24 hrs. The method, then: as §1
For a further assay, the system named is Bacteroides fragilis 111. The format is cell-based. The conditions noted are these: agar dilution, read after 24 hrs.
Assay [23] deals with Bacteroides fragilis 1936B. The assay is classed as cell-based. Particulars: agar dilution, read after 24 hrs.
For assay [24], the system named is Propionibacterium acnes 79. The assay is classed as cell-based. The conditions noted are these: agar dilution, read after 24 hrs.
The test system of another assay is Streptococcus pneumoniae. The assay can be described thus: experimental bacterial infection in mice, ED50. The format is in vivo. Particulars: subcutaneous, two doses. The protocol: (§2) The formula 1 compounds have also shown in vivo antimicrobial activity against experimental bacterial infections. When two doses of test compound were administered to mice in experimental infections, the activity observed was measured as an ED50 value [effective dose in mg/kg to protect 50% of the test animals: see Warren Wick, et al., J. Bacteriol. 81, 233-235 (1961)].

For a further assay, the system named is Streptococcus pyogenes. The experiment in a line: experimental bacterial infection in mice, ED50. The format is in vivo. Particulars: subcutaneous, two doses. The method, then: as §2
A further assay concerns Staphylococcus aureus. The experiment in a line: experimental bacterial infection in mice, ED50. The assay is classed as in vivo. Particulars: subcutaneous, two doses. The protocol: as §2
The subject of assay [25] is Clostridium perfringens 81. The format is cell-based. The conditions noted are these: agar dilution, read after 24 hrs.
Assay [26] relates to Bacteroides vulgatis 1211. The format is cell-based. Particulars: agar dilution, read after 24 hrs.
The test system of assay [27] is Fusobacterium necrophorum 6054A. The assay is classed as cell-based. Particulars: agar dilution, read after 24 hrs.
In assay [28] the test system is Peptostreptococcus anaerobius 1428. The format is cell-based. Particulars: agar dilution, read after 24 hrs.

On to `CC(C)C[C@H](C(=O)N[C@H]1C(=O)N[C@@H](CC(N)=O)C(=O)N[C@H]2C(=O)N[C@H]3C(=O)N[C@H](C(=O)N[C@H](C(=O)[O-])c4cc(O)cc(O)c4-c4cc3ccc4O)[C@H](O)c3ccc(c(Cl)c3)Oc3cc2cc(c3O[C@@H]2O[C@H](CO)[C@@H](O)[C@H](O)[C@H]2O)Oc2ccc(cc2Cl)[C@H]1O)[N+](C)(C)C` [Compound 5, M43C], for which the MIC is 1 µg/mL (≈ 0.75 µM) in assay [1]; more than 64 µg/mL in the assay on Klebsiella pneumonia X68; 4 µg/mL (≈ 3 µM) in [2]; more than 64 µg/mL in the assay with Klebsiella pneumonia X26; more than 64 µg/mL in the assay with Escherichia coli EC14; 1 µg/mL (≈ 0.75 µM) in assay [3]. Further, the MIC is 2 µg/mL (≈ 1.5 µM) in [4]; 8 µg/mL (≈ 6 µM) in assay [5]; 2 µg/mL (≈ 1.5 µM) in assay [6]; 64 µg/mL (≈ 48 µM) in assay [7]; 8 µg/mL (≈ 6 µM) in assay [8]; 4 µg/mL (≈ 3 µM) in assay [9]. The MIC with Escherichia coli TEM is more than 64 µg/mL; against Klebsiella pneumonia KAE, more than 64 µg/mL; against Escherichia coli N10, more than 64 µg/mL; in assay [10] it was more than 64 µg/mL; in assay [11], 2 µg/mL (≈ 1.5 µM).
Regarding `CC(C)C[C@@H](N)C(=O)N[C@H]1C(=O)N[C@@H](CC(N)=O)C(=O)N[C@H]2C(=O)N[C@H]3C(=O)N[C@H](C(=O)N[C@H](C(=O)O)c4cc(O)cc(O)c4-c4cc3ccc4O)[C@H](O)c3ccc(c(Cl)c3)Oc3cc2cc(c3O)Oc2ccc(cc2Cl)[C@H]1O` [Compound 9, Agluco-A51568A], the MIC in [1] is 0.5 µg/mL (≈ 0.443 µM); in the assay on Klebsiella pneumonia X68 it was more than 128 µg/mL; in assay [12], 1 µg/mL (≈ 0.885 µM); in [13], 64 µg/mL (≈ 56.6 µM); in [2], 1 µg/mL (≈ 0.885 µM); against Klebsiella pneumonia X26, more than 128 µg/mL. Moreover, the MIC is more than 128 µg/mL in the assay with Escherichia coli EC14; 1 µg/mL (≈ 0.885 µM) in assay [3]; 0.5 µg/mL (≈ 0.443 µM) in [4]; 1 µg/mL (≈ 0.885 µM) in assay [5]; more than 128 µg/mL in assay [14]; 64 µg/mL (≈ 56.6 µM) in assay [15]. Moreover, the MIC in assay [6] came to 0.5 µg/mL (≈ 0.443 µM); in [16], 64 µg/mL (≈ 56.6 µM); in assay [7], 128 µg/mL (≈ 113 µM); in assay [17], 4 µg/mL (≈ 3.54 µM); in assay [18], 1 µg/mL (≈ 0.885 µM); in assay [19] it was 1 µg/mL (≈ 0.885 µM). In addition, the MIC in assay [8] was found to be 2 µg/mL (≈ 1.77 µM); in assay [20] it was 4 µg/mL (≈ 3.54 µM); in the assay on Peptococcus prevoti 1281, 1 µg/mL (≈ 0.885 µM); in assay [21], 1 µg/mL (≈ 0.885 µM); in assay [22], 1 µg/mL (≈ 0.885 µM); in assay [9] it was 1 µg/mL (≈ 0.885 µM). For the same compound, the MIC in the assay on Escherichia coli TEM is more than 128 µg/mL; against Klebsiella pneumonia KAE, more than 128 µg/mL; with Bacteroides fragilis 111 it was 64 µg/mL (≈ 56.6 µM); against Escherichia coli N10, more than 128 µg/mL; in assay [23], 64 µg/mL (≈ 56.6 µM); in assay [24], 1 µg/mL (≈ 0.885 µM). The MIC in [10] was 128 µg/mL (≈ 113 µM); in assay [25], 1 µg/mL (≈ 0.885 µM); in assay [11], 0.5 µg/mL (≈ 0.443 µM); in assay [26] it was 1 µg/mL (≈ 0.885 µM); in assay [27], not below 0.5 µg/mL; in [28] it was not below 0.5 µg/mL. Further, the ED50 is 1.8 mg/kg/2 in the assay on Streptococcus pneumoniae, 2.0 mg/kg/2 with Streptococcus pyogenes and 0.74 mg/kg/2 in the assay with Staphylococcus aureus.
`CC(C)C[C@H](C(=O)N[C@H]1C(=O)N[C@@H](CC(N)=O)C(=O)N[C@H]2C(=O)N[C@H]3C(=O)N[C@H](C(=O)N[C@H](C(=O)[O-])c4cc(O)cc(O)c4-c4cc3ccc4O)[C@H](O)c3ccc(c(Cl)c3)Oc3cc2cc(c3O)Oc2ccc(cc2Cl)[C@H]1O)[N+](C)(C)C` [Compound 11, Agluco-M43A]: the MIC is 1 µg/mL (≈ 0.853 µM) in [1]; more than 128 µg/mL with Klebsiella pneumonia X68; 2 µg/mL (≈ 1.71 µM) in [2]; more than 128 µg/mL with Klebsiella pneumonia X26; more than 128 µg/mL in the assay on Escherichia coli EC14; 2 µg/mL (≈ 1.71 µM) in assay [3]. Further, the MIC was found to be 2 µg/mL (≈ 1.71 µM) in assay [4]; 2 µg/mL (≈ 1.71 µM) in assay [5]; 2 µg/mL (≈ 1.71 µM) in assay [6]; 32 µg/mL (≈ 27.3 µM) in assay [7]; 4 µg/mL (≈ 3.41 µM) in assay [8]; 2 µg/mL (≈ 1.71 µM) in assay [9]. Further, the MIC is more than 128 µg/mL against Escherichia coli TEM; more than 128 µg/mL against Klebsiella pneumonia KAE; more than 128 µg/mL against Escherichia coli N10; 128 µg/mL (≈ 109 µM) in [10]; 2 µg/mL (≈ 1.71 µM) in assay [11]. The ED50 is recorded as 3.06 mg/kg/2 in the assay on Streptococcus pneumoniae, 3.63 mg/kg/2 in the assay on Streptococcus pyogenes and 3.06 mg/kg/2 with Staphylococcus aureus.
Take `CC(C)C[C@@H](N)C(=O)N[C@H]1C(=O)N[C@@H](CC(N)=O)C(=O)N[C@H]2C(=O)N[C@H]3C(=O)N[C@H](C(=O)N[C@H](C(=O)O)c4cc(O)cc(O)c4-c4cc3ccc4O)[C@H](O)c3ccc(c(Cl)c3)Oc3cc2cc(c3O[C@@H]2O[C@H](CO)[C@@H](O)[C@H](O)[C@H]2O)Oc2ccc(cc2Cl)[C@H]1O` [Compound 12, Desvancosamine-A51568A]: the MIC in assay [1] was 1 µg/mL (≈ 0.774 µM); in the assay with Klebsiella pneumonia X68 it was more than 128 µg/mL; in assay [2], 4 µg/mL (≈ 3.1 µM); against Klebsiella pneumonia X26, more than 128 µg/mL; in the assay with Escherichia coli EC14, more than 128 µg/mL; in assay [3], 2 µg/mL (≈ 1.55 µM). Besides, the MIC in assay [4] was 2 µg/mL (≈ 1.55 µM); in assay [5], 4 µg/mL (≈ 3.1 µM); in assay [6], 2 µg/mL (≈ 1.55 µM); in assay [7], more than 128 µg/mL; in [8], 8 µg/mL (≈ 6.19 µM); in assay [9], 4 µg/mL (≈ 3.1 µM). In addition, the MIC was 128 µg/mL (≈ 99.1 µM) against Escherichia coli TEM; more than 128 µg/mL in the assay with Klebsiella pneumonia KAE; more than 128 µg/mL against Escherichia coli N10; more than 128 µg/mL in [10]; 2 µg/mL (≈ 1.55 µM) in assay [11].
Turning to `CN[C@H](CC(C)C)C(=O)N[C@H]1C(=O)N[C@@H](CC(N)=O)C(=O)N[C@H]2C(=O)N[C@H]3C(=O)N[C@H](C(=O)N[C@H](C(=O)O)c4cc(O)cc(O)c4-c4cc3ccc4O)[C@H](O)c3ccc(c(Cl)c3)Oc3cc2cc(c3O[C@@H]2O[C@H](CO)[C@@H](O)[C@H](O)[C@H]2O)Oc2ccc(cc2Cl)[C@H]1O` [Compound 13, Desvancosamine-Vancomycin], the MIC was 4 µg/mL (≈ 3.06 µM) in [1]; more than 128 µg/mL against Klebsiella pneumonia X68; 8 µg/mL (≈ 6.13 µM) in assay [2]; more than 128 µg/mL with Klebsiella pneumonia X26; more than 128 µg/mL in the assay on Escherichia coli EC14; 4 µg/mL (≈ 3.06 µM) in assay [3]. In addition, the MIC worked out at 8 µg/mL (≈ 6.13 µM) in assay [4]; 16 µg/mL (≈ 12.3 µM) in assay [5]; 8 µg/mL (≈ 6.13 µM) in [6]; 128 µg/mL (≈ 98 µM) in [7]; 32 µg/mL (≈ 24.5 µM) in assay [8]; 8 µg/mL (≈ 6.13 µM) in assay [9]. Further, the MIC against Escherichia coli TEM is more than 128 µg/mL; against Klebsiella pneumonia KAE it was more than 128 µg/mL; with Escherichia coli N10 it was more than 128 µg/mL; in assay [10], more than 128 µg/mL; in assay [11] it was 8 µg/mL (≈ 6.13 µM).
